Assay results published in patent US12104173B2, “Method for differentiation of human pluripotent stem cell lines in suspension culture” (AGENCY FOR SCIENCE, TECHNOLOGY AND RESEARCH, priority 2018, dated 2024).

Experiments:
Assay in all cases: CHIR dose: hematopoietic/erythroid differentiation of agitated hPSC-MC aggregates
Format in all cases: cell-based, human
IMR90 hiPSC line = details: for Erythroblast expansion Fold-expansion: optimal dose of CHIR-99021, 24 days in erythroblast expansion medium (static), cumulative
Procedure: (§1) Human pluripotent stem cell-microcarrier (HPSC-MC) aggregates generated from different hPSC lines were differentiated using 3 different CHIR doses (5, 10 and 15 μM for 24 hours) and were evaluated for T-bra (day 2) and KDR+PDGFRβ− (day 4) expression by flow cytometry, induction of key hematopoietic transcription factors by RT-PCR (day 4), hematopoietic precursor expansion (day 14) and erythroblast expansion (day 42).
(§2) Table 2—Hematopoietic differentiation of nine human pluripotent stem cell (hPSC) lines, from expansion in agitated microcarrier culture to erythroblast expansion—This table summarises the different stages of differentiation; hPSC expansion, mesoderm induction, hematopoietic precursor and erythroblast expansion of multiple hPSC-MC aggregate lines differentiated with optimal dose of CHIR-99021. Fold-expansion of hPSC-MC aggregates following 7 days of agitated culture, hematopoietic precursors following 14 days of culture in methylcellulose medium and erythroblast expansion following 24 days in expansion medium are reported. Flow cytometric evaluation of % T-bra+ cells on day 2 and % KDR+ cells on day 4 during mesoderm induction, % CD43+ cells during hematopoietic precursor expansion, % CD235a+ cells and fetal hemoglobin expression during erythroblast expansion stage are summarised. Total erythroid cells per hPSC seeded on day 42 was calculated as number of embryoid bodies derived on day 4 per hPSC seeded*erythroblast fold expansion*percent CD235a+ erythroblast.
(§3) Analysis of Design of experiments (DoE) outcomes and evaluation of selected conditions generated by the MODDE® software allowed the development of an optimized protocol for hematopoietic mesoderm induction of human pluripotent stem cell-microcarrier (hPSC-MC) aggregates initially expanded under continuous agitation. Approximately 2 to 4 million hPSC-MC aggregates in 3 ml of Stemline® II medium were differentiated as follows: day 1; 30 ng/ml of BMP4, 50 ng/ml VEGF165, 12 μM CHIR-99021 (Selleck Chemicals, USA), 50 ng/ml Activin A, day 2; 30 ng/ml of BMP4, 50 ng/ml VEGF165, 50 ng/ml Activin A, day 3: 30 ng/ml of BMP4, 50 ng/ml VEGF165 and 20 ng/ml bFGF. Four days post-differentiation, single cells derived by TrypLE™ Express (ThermoFisher Scientific) treatment and strained through 40 μm cell strainers (Greiner Bio-one, Germany) were used for hematopoietic precursor and erythroblast expansion and erythroblast terminal maturation as detailed herein. Hematopoietic and erythroblast differentiation were monitored by flow cytometry, quantitative real-time PCR, immunoblotting and microscopic imaging. Oxygen binding affinity of differentiated erythroblast was determined using a Hemox Analyzer (TCS Scientific Corp, USA).
(§4) HPSC-MC aggregates were dissociated into single cells by treatment with TrypLE. Express (ThermoFisher Scientific) for 5 minutes at 37° C., passed through 40 μm cell strainer (Greiner Bio-one), centrifuged at 1300 rpm for 3 minutes to pellet cells, and rinsed once with phosphate buffered saline (PBS) before re-suspension in Stemline II medium. Two hundred thousand cells in 100 μl of Stemline II medium were transferred to a 6-well ultra-low attachment plate and cultured with Blast growth medium (BGM) for 2 weeks in static conditions as detailed herein.
(§5) Hematopoietic precursors were mixed with equal volume of Stemline II medium containing 50 ng/ml of SCF (STEMCELL. Technologies) and 3 U/ml EPO (Peprotech, USA), for an additional 7 days. Subsequently, cells were diluted 10-fold with PBS and pelleted by centrifugation at 3000 rpm for 10 minutes. […]

D12 O-neg hiPSC line = test system: D12 O-neg hiPSC line
Procedure: as §1, §2, §3, §4, §5

BR7 O-neg hiPSC line = details: for Erythroblast expansion Fold-expansion: optimal dose of CHIR-99021, 24 days in erythroblast expansion medium (static), cumulative
Procedure: as §1, §2, §3, §4, §5

X13 O-neg hiPSC line = details: for Erythroblast expansion Fold-expansion: optimal dose of CHIR-99021, 24 days in erythroblast expansion medium (static), cumulative; for Total erythroid cells per hPSC seeded (day 42): optimal dose of CHIR-99021, CD235a+ erythroid cells
Procedure: as §1, §2, §3, §4, §5

BR2 O-neg hiPSC line = test system: BR2 O-neg hiPSC line
Procedure: as §1, §2, §3, §4, §5

D5 O-neg hiPSC line = details: for Erythroblast expansion Fold-expansion: optimal dose of CHIR-99021, 24 days in erythroblast expansion medium (static), cumulative
Procedure: as §1, §2, §3, §4, §5

hES-3 hESC line = details: for Erythroblast expansion Fold-expansion: optimal dose of CHIR-99021, 24 days in erythroblast expansion medium (static), cumulative
Procedure: as §1, §2, §3, §4, §5

D11 O-neg hiPSC line = test system: D11 O-neg hiPSC line
Procedure: as §1, §2, §3, §4, §5

[1] = 15 μM CHIR for 24 hours, day 2, flow cytometry
[2] = 15 μM CHIR for 24 hours, day 4, flow cytometry
[3] = optimal dose of CHIR-99021, 14 days in methyl cellulose medium
[4] = optimal dose of CHIR-99021, 14 days in methyl cellulose medium (static)
[5] = optimal dose of CHIR-99021, day 2
[6] = optimal dose of CHIR-99021, erythroblast expansion stage
[7] = optimal dose of CHIR-99021, fetal hemoglobin, flow cytometry
[8] = 15 μM CHIR dose, day 14 post differentiation
[9] = erythroblast expansion medium, up to day 42
[10] = optimal dose of CHIR-99021, day 4

Cc1c[nH]c(-c2cnc(NCCNc3ccc(C#N)cn3)nc2-c2ccc(Cl)cc2Cl)n1 [CHIR-99021, 6-[[2-[[4-(2,4-Dichlorophenyl)-5-(5-methyl-1H-imidazol-2-yl)-2-pyrimidinyl]amino]ethyl]amino]-3-pyridinecarbonitrile]
T-Bra+ cells (IMR90 hiPSC line; [1]): 17.22±7.4%
KDR+PDGFRβ- cells (IMR90 hiPSC line; [2]): 14.2±1.69%
Total erythroid cells per hPSC seeded (day 42) (IMR90 hiPSC line; optimal dose of CHIR-99021): 1300
Hematopoietic precursor expansion % CD43 (IMR90 hiPSC line; [3]): 21.9%
Hematopoietic precursor expansion Fold-expansion (IMR90 hiPSC line; [4]): 7.9 fold
Erythroblast expansion Fold-expansion (IMR90 hiPSC line; day 42): 918.1 fold
Erythroblast expansion Fold-expansion (IMR90 hiPSC line; day 42, listed as CHIR): 918.1±342.4 fold
Mesoderm induction % T-Bra (IMR90 hiPSC line; [5]): 17.2%
Erythroblast expansion % CD235a+ (IMR90 hiPSC line; [6]): 75.9%
Erythroblast expansion Hemoglobin expression (IMR90 hiPSC line; [7]): 98.1
fold-expansion of hematopoietic precursors (D12 O-neg hiPSC line; [8]): 5.26±1.32 fold
T-Bra+ cells (D12 O-neg hiPSC line; [1]): 10.6±2.78%
KDR+PDGFRβ- cells (D12 O-neg hiPSC line; [2]): 31.13±5.17%
erythroblast differentiation (D12 O-neg hiPSC line; [9]): failed to differentiate into erythroid cells
Hematopoietic precursor expansion % CD43 (D12 O-neg hiPSC line; [3]): 22%
Hematopoietic precursor expansion Fold-expansion (D12 O-neg hiPSC line; [4]): 7.9 fold
Mesoderm induction % T-Bra (D12 O-neg hiPSC line; [5]): 10.9%
Mesoderm induction % KDR+ PDGFRα− (D12 O-neg hiPSC line; [10]): 20.7%
fold-expansion of hematopoietic precursors (BR7 O-neg hiPSC line; [8]): 5.81±0.92 fold
T-Bra+ cells (BR7 O-neg hiPSC line; [1]): 20.8±3.8%
KDR+PDGFRβ- cells (BR7 O-neg hiPSC line; [2]): 18.6±1.57%
Total erythroid cells per hPSC seeded (day 42) (BR7 O-neg hiPSC line; optimal dose of CHIR-99021): 12
Hematopoietic precursor expansion % CD43 (BR7 O-neg hiPSC line; [3]): 14.3%
Hematopoietic precursor expansion Fold-expansion (BR7 O-neg hiPSC line; [4]): 5.8 fold
Erythroblast expansion Fold-expansion (BR7 O-neg hiPSC line; day 42): 31.5 fold
Erythroblast expansion Fold-expansion (BR7 O-neg hiPSC line; day 42, listed as CHIR): 31.48±7.7 fold
Mesoderm induction % T-Bra (BR7 O-neg hiPSC line; [5]): 20.8%
Erythroblast expansion % CD235a+ (BR7 O-neg hiPSC line; [6]): 33.8%
Erythroblast expansion Hemoglobin expression (BR7 O-neg hiPSC line; [7]): 95.5
fold-expansion of hematopoietic precursors (X13 O-neg hiPSC line; [8]): 9.93±0.28 fold
T-Bra+ cells (X13 O-neg hiPSC line; [1]): 60.9±8.55%
KDR+PDGFRβ- cells (X13 O-neg hiPSC line; [2]): 40.8±1.34%
Hematopoietic precursor expansion % CD43 (X13 O-neg hiPSC line; [3]): 43.9%
Hematopoietic precursor expansion Fold-expansion (X13 O-neg hiPSC line; [4]): 9.9 fold
Erythroblast expansion Fold-expansion (X13 O-neg hiPSC line; day 42): 12605 fold
Erythroblast expansion Fold-expansion (X13 O-neg hiPSC line; day 42, listed as CHIR): 12605±2126 fold
Total erythroid cells per hPSC seeded (day 42) (X13 O-neg hiPSC line): 7607
Total erythroid cells per hPSC seeded (day 42) (X13 O-neg hiPSC line; listed as CHIR): 7607±1016
Mesoderm induction % T-Bra (X13 O-neg hiPSC line; [5]): 60.9%
Erythroblast expansion % CD235a+ (X13 O-neg hiPSC line; [6]): 67.4%
Erythroblast expansion Hemoglobin expression (X13 O-neg hiPSC line; [7]): 96.9
fold-expansion of hematopoietic precursors (BR2 O-neg hiPSC line; [8]): 8.07±2.06 fold
T-Bra+ cells (BR2 O-neg hiPSC line; [1]): 20.1±2.4%
KDR+PDGFRβ- cells (BR2 O-neg hiPSC line; [2]): 24.07±1.34%
erythroblast differentiation (BR2 O-neg hiPSC line; [9]): failed to differentiate into erythroid cells
Hematopoietic precursor expansion % CD43 (BR2 O-neg hiPSC line; [3]): 8.7%
Hematopoietic precursor expansion Fold-expansion (BR2 O-neg hiPSC line; [4]): 8.1 fold
Mesoderm induction % T-Bra (BR2 O-neg hiPSC line; [5]): 20.1%
Mesoderm induction % KDR+ PDGFRα− (BR2 O-neg hiPSC line; [10]): 24.1%
fold-expansion of hematopoietic precursors (D5 O-neg hiPSC line; [8]): 7.99±0.82 fold
T-Bra+ cells (D5 O-neg hiPSC line; [1]): 55.6±8.26%
KDR+PDGFRβ- cells (D5 O-neg hiPSC line; [2]): 35.77±1.53%
Total erythroid cells per hPSC seeded (day 42) (D5 O-neg hiPSC line; optimal dose of CHIR-99021): 2308
Hematopoietic precursor expansion % CD43 (D5 O-neg hiPSC line; [3]): 27.7%
Hematopoietic precursor expansion Fold-expansion (D5 O-neg hiPSC line; [4]): 7.9 fold
Erythroblast expansion Fold-expansion (D5 O-neg hiPSC line; day 42): 3712 fold
Erythroblast expansion Fold-expansion (D5 O-neg hiPSC line; day 42, listed as CHIR): 3712±1651 fold
Mesoderm induction % T-Bra (D5 O-neg hiPSC line; [5]): 55.6%
Erythroblast expansion % CD235a+ (D5 O-neg hiPSC line; [6]): 74.6%
Erythroblast expansion Hemoglobin expression (D5 O-neg hiPSC line; [7]): 99.2
fold-expansion of hematopoietic precursors (hES-3 hESC line; [8]): 6.97±1.35 fold
T-Bra+ cells (hES-3 hESC line; [1]): 18±3.82%
KDR+PDGFRβ- cells (hES-3 hESC line; [2]): 14.6±0.81%
Total erythroid cells per hPSC seeded (day 42) (hES-3 hESC line; optimal dose of CHIR-99021): 244
Hematopoietic precursor expansion % CD43 (hES-3 hESC line; [3]): 42.8%
Hematopoietic precursor expansion Fold-expansion (hES-3 hESC line; [4]): 6.9 fold
Erythroblast expansion Fold-expansion (hES-3 hESC line; day 42): 324 fold
Erythroblast expansion Fold-expansion (hES-3 hESC line; day 42, listed as CHIR): 324±83.97 fold
Mesoderm induction % T-Bra (hES-3 hESC line; [5]): 18%
Erythroblast expansion % CD235a+ (hES-3 hESC line; [6]): 78.5%
Erythroblast expansion Hemoglobin expression (hES-3 hESC line; [7]): 99.3
fold-expansion of hematopoietic precursors (D11 O-neg hiPSC line; [8]): 3.2±0.33 fold
T-Bra+ cells (D11 O-neg hiPSC line; [1]): 33.4±4.10%
KDR+PDGFRβ- cells (D11 O-neg hiPSC line; [2]): 11.74±1.16%
erythroblast differentiation (D11 O-neg hiPSC line; [9]): failed to differentiate into erythroid cells
Hematopoietic precursor expansion % CD43 (D11 O-neg hiPSC line; [3]): 17.4%
Hematopoietic precursor expansion Fold-expansion (D11 O-neg hiPSC line; [4]): 3.2 fold
Mesoderm induction % T-Bra (D11 O-neg hiPSC line; [5]): 33.4%
Mesoderm induction % KDR+ PDGFRα− (D11 O-neg hiPSC line; [10]): 11.7%
